# Test results published in paper PMC12495412, “Coumarin/nitrogen-bearing heterocyclic hybrid-loaded electrospun PMMA/PVP nanofibrous scaffolds for accelerating topical wound healing rates: synthesis and in vitro bio-evaluation” (RSC Advances, 2025).
# Marks after values point to notes of the source that are not given here.
# Columns and labels:
# [1] = system: Pseudomonas aeruginosa; assay: Biofilm inhibition test (spectrophotometric); assay type: cell-based; conditions: 24 h, 37 °C, OD vs untreated
# Protocol: (§1) Additionally, a spectrophotometric antibiofilm assay was utilized to determine whether the evaluated formulations might inhibit the growth of pathogens. Fresh nutritional broth was inoculated with each pathogen separately, and this mixture was then incubated at 37 °C at 200 rpm. The optical density (OD) at 600 nm was measured over a 6 h incubation period, allowing for an estimation of the starting microbe's exponential phase (3 × 10^7 CFU mL^−1). To produce treated cultures, 900 μL of planktonic cultures were collected aseptically with 100 μL of each formulation. Furthermore, untreated (formula-free) cultures of pathogens were grown as controls. The cultures were then incubated for 24 hours at 200 rpm and 37 °C. Through spectroscopic evaluation of microbial turbidity, the inhibitory effects of the examined formulations were determined.[27] By comparing the OD of the treated sample with the matching controls, anti-biofilm percentages for each formula were computed.[28]
# [2] = system: Klebsiella pneumoniae; assay: Biofilm inhibition test (spectrophotometric); assay type: cell-based; conditions: 24 h, 37 °C, OD vs untreated
# Protocol: as §1
# [3] = system: Staphylococcus aureus; assay: Biofilm inhibition test (spectrophotometric); assay type: cell-based; conditions: 24 h, 37 °C, OD vs untreated
# Protocol: as §1
# [4] = system: Candida albicans; assay: Biofilm inhibition test (spectrophotometric); assay type: cell-based; conditions: 24 h, 37 °C, OD vs untreated
# Protocol: as §1
# [5] = system: Salmonella paratyphi; assay: Biofilm inhibition test (spectrophotometric); assay type: cell-based; conditions: 24 h, 37 °C, OD vs untreated
# Protocol: as §1
# [6] = system: Candida parapsilosis; assay: Biofilm inhibition test (spectrophotometric); assay type: cell-based; conditions: 24 h, 37 °C, OD vs untreated
# Protocol: as §1
# [7] = system: Candida krusei; assay: Biofilm inhibition test (spectrophotometric); assay type: cell-based; conditions: 24 h, 37 °C, OD vs untreated
# Protocol: as §1
# [8] = system: Bacillus subtilis; assay: Biofilm inhibition test (spectrophotometric); assay type: cell-based; conditions: 24 h, 37 °C, OD vs untreated
# Protocol: as §1
# [9] = system: Staphylococcus epidermidis; assay: Biofilm inhibition test (spectrophotometric); assay type: cell-based; conditions: 24 h, 37 °C, OD vs untreated
# Protocol: as §1
# [10] = system: Candida glabrata; assay: Biofilm inhibition test (spectrophotometric); assay type: cell-based; conditions: 24 h, 37 °C, OD vs untreated
# Protocol: as §1
# [11] = system: Bacillus cereus; assay: Biofilm inhibition test (spectrophotometric); assay type: cell-based; conditions: 24 h, 37 °C, OD vs untreated
# Protocol: as §1
# [12] = system: Escherichia coli; assay: Biofilm inhibition test (spectrophotometric); assay type: cell-based; conditions: 24 h, 37 °C, OD vs untreated
# Protocol: as §1
# [13] = system: multidrug-resistant human pathogens; assay: Agar-well diffusion of formulations, whole panel; assay type: cell-based; conditions: all human pathogens investigated
# Protocol: (§2) The antimicrobial qualities of formulations were evaluated in this study using a variety of techniques. The formulations including 8 PMMA and 2 PVP, which contained varying doses of drug A (0.5% = T1, 1% = T2, 3% = T3, and 5% = T4) or drug B (0.5% = T5, 1% = T6, 3% = T7, and 5% = T8), as well as a combination of 2.5% of drug A and 2.5% of drug B (T9) were assessed. The tested human pathogens were cultivated in a nutritional broth medium containing 0.5% peptone, 0.3% yeast extract, 0.2% beef extract, 0.1% glucose, and 0.5% NaCl in accordance with 0.5 McFarland turbidity criteria.[25] To carry out the agar-well diffusion analysis, microbial cultures (100 μL) were spread on nutrient agar plates using sterile cotton swabs. After drilling each well with a sterile cork-borer of 5 mm in diameter, 50 μL of the tested formulations and the control (composed of 8 PMMA and 2 PVP) were loaded. Agar plates were thereafter left to incubate at 37 °C for an entire day. The inhibitory zone that surrounds each well was measured in millimeters (mm) using a ruler.[26]
# [14] = system: Pseudomonas aeruginosa; assay: Agar-well diffusion of formulations; assay type: cell-based; conditions: 50 μL per 5 mm well, 37 °C
# Protocol: as §2
# [15] = system: Klebsiella pneumoniae; assay: Agar-well diffusion of formulations; assay type: cell-based; conditions: 50 μL per 5 mm well, 37 °C
# Protocol: as §2
# [16] = system: Staphylococcus aureus; assay: Agar-well diffusion of formulations; assay type: cell-based; conditions: 50 μL per 5 mm well, 37 °C
# Protocol: as §2
# [17] = system: Candida albicans; assay: Agar-well diffusion of formulations; assay type: cell-based; conditions: 50 μL per 5 mm well, 37 °C
# Protocol: as §2
# [18] = system: Salmonella paratyphi; assay: Agar-well diffusion of formulations; assay type: cell-based; conditions: 50 μL per 5 mm well, 37 °C
# Protocol: as §2
# [19] = system: Candida parapsilosis; assay: Agar-well diffusion of formulations; assay type: cell-based; conditions: 50 μL per 5 mm well, 37 °C
# Protocol: as §2
# [20] = system: Candida krusei; assay: Agar-well diffusion of formulations; assay type: cell-based; conditions: 50 μL per 5 mm well, 37 °C
# Protocol: as §2
# [21] = system: Bacillus subtilis; assay: Agar-well diffusion of formulations; assay type: cell-based; conditions: 50 μL per 5 mm well, 37 °C
# Protocol: as §2
# [22] = system: Staphylococcus epidermidis; assay: Agar-well diffusion of formulations; assay type: cell-based; conditions: 50 μL per 5 mm well, 37 °C
# Protocol: as §2
# [23] = system: Candida glabrata; assay: Agar-well diffusion of formulations; assay type: cell-based; conditions: 50 μL per 5 mm well, 37 °C
# Protocol: as §2
# [24] = system: Bacillus cereus; assay: Agar-well diffusion of formulations; assay type: cell-based; conditions: 50 μL per 5 mm well, 37 °C
# Protocol: as §2
# [25] = system: Escherichia coli; assay: Agar-well diffusion of formulations; assay type: cell-based; conditions: 50 μL per 5 mm well, 37 °C
# Protocol: as §2
# [26] = system: P. aeruginosa; assay: Agar-well diffusion of synthesized compounds; assay type: cell-based, Pseudomonas aeruginosa ATCC 27853; conditions: Pseudomonas aeruginosa, 100 μL of 10 mg mL^−1 per well, 24 h, 37 °C
# Source text: (§3) The antimicrobial activity of the prepared compounds was estimated through an agar-well diffusion method as adapted from the modified Kirby–Bauer protocol.[24] In this test, microbial pathogens were applied, including Staphylococcus aureus ATCC 25923 (S. aureus), Streptococcus mutans ATCC 25175 (S. mutans), Bacillus cereus ATCC 19637 (B. cereus), Bacillus aureus ATCC 25923 (B. aureus), Bacillus epidermidis ATCC 14990 (B. epidermidis), and Bacillus subtilis ATCC 11774 (B. subtilis) as Gram-positive bacteria, and Pseudomonas aeruginosa ATCC 27853 (P. aeruginosa), Klebsiella pneumonia ATCC 13883 (K. pneumonia), and Salmonella typhimurium ATCC 14028 (S. typhimurium), Salmonella pneumoniae ATCC 10031(S. pneumoniae), Escherichia coli ATCC 10536 (E. coli), and Salmonella paratyphi ATCC 9150 (S. paratyphi) as Gram-negative bacteria. Additionally, Candida albicans (ATCC 10231), Candida krusei ATCC 6258 (C. krusei), Candida glabrata ATCC 66032 (C. glabrata), andCandida parapsilosis ATCC 22019 (C. parapsilosis) were applied as models of unicellular fungi. The pre-inoculation cultures of the pathogens were prepared on Muller–Hinton broth and cultivated for 24 h at 37 °C. The agar-well test was prepared on Muller–Hinton agar with 100 μL of each pathogen pre-culture (0.5 McFarland conc.) and uniformly distributed on the plate surface. […]
# [27] = system: Caco-2 cells; assay: MTT anticancer assay; assay type: cell-based
# Source text: (§4) MTT assay: the normal cell line (Wi-38), colon cancer (Caco-2), lung cancer (A549), and breast cancer (MDA) cell lines were sourced from ATCC, USA. All different cell lines were cultivated and preserved in DMEM medium (SERANA, Germany), accompanied by 10% FBS (Gibco, USA) and 1% Pen/Strep solution (Lonza, USA). The newly prepared derivatives at various doses were considered for their anticancer activity and their safety on normal cells, applying MTT (3-[4, 5-dimethylthiazol]-2, 5-diphenyltetrazolium bromide) methods.[22] At first, all normal and cancer cell lines (1.0 ×10^4) were inoculated in 4 antiseptic 96-well tissue culture microplates and incubated for 24 h in a CO2 incubator. After cell attachments, the prepared derivatives were added to both normal Wi-38 cells at diverse concentrations of (6.25–200 μg mL^−1, 2-fold) and cancer cells at different concentrations of (3.125–100 μg mL^−1, 2-fold) in triplicate and incubated for another 48 h at 37 °C in a CO2 incubator with an adjusted concentration of 5%. After that, the treated cells were cleaned three times with PBS to remove debris and dead cells. Next, 200 μL of 0.5 mg mL^−1 MTT dye solution in PBS was mixed in each well, and the cells were further kept for 3 h at 37 °C in a 5% CO2 incubator. After that, MTT was removed and 200 μL of DMSO was added to each well. The optical density (OD) was recorded at 570 nm via a microplate reader (B.M.G. LabTech, Germany). Basic cells (untreated) were utilized as negative control cells, and 5-fluorouracil (5-FU) was included as a standard chemotherapy drug. The qualified cell viability (%) was evaluated as in equation (eqn (1)):1 Relative cell viability (%) = […] A1 is the OD of the examined derivative, A0 is the OD of the standard, and AU is the OD of the untreated cells.
# (§5) Anticancer activity assay: the anticancer effect of each derivative was assessed by evaluating the half-maximal inhibitory concentration (IC50) value via the GraphPad Prism 7.0 software. However, SI (selective index) values of each derivative were estimated by splitting the IC50 value of healthy cells by the IC50 value of malignant cells, as previously reported.[23] The effects of the created derivatives on the morphology of MDA cells were evaluated at IC50 doses and captured by phase-contrast microscopy (Olympus, Germany) in comparison to untreated control cells.
# [28] = system: MDA cells; assay: MTT anticancer assay; assay type: cell-based, human; conditions: Homo sapiens, Breast carcinoma cell, 48 h
# Source text: as §4, §5
# [29] = system: A549 cells; assay: MTT anticancer assay; assay type: cell-based, human; conditions: Homo sapiens, A549, lung carcinoma cells, 48 h
# Source text: as §4, §5
# [30] = system: K. pneumonia; assay: Agar-well diffusion of synthesized compounds; assay type: cell-based, Klebsiella pneumonia ATCC 13883; conditions: Klebsiella pneumoniae, 100 μL of 10 mg mL^−1 per well, 24 h, 37 °C
# Source text: as §3
# [31] = system: all applied pathogens; assay: Agar-well diffusion of synthesized compounds, whole panel; assay type: cell-based
# Source text: (§6) The antimicrobial activity of the prepared compounds was estimated through an agar-well diffusion method as adapted from the modified Kirby–Bauer protocol.[24] In this test, microbial pathogens were applied, including Staphylococcus aureus ATCC 25923 (S. aureus), Streptococcus mutans ATCC 25175 (S. mutans), Bacillus cereus ATCC 19637 (B. cereus), Bacillus aureus ATCC 25923 (B. aureus), Bacillus epidermidis ATCC 14990 (B. epidermidis), and Bacillus subtilis ATCC 11774 (B. subtilis) as Gram-positive bacteria, and Pseudomonas aeruginosa ATCC 27853 (P. aeruginosa), Klebsiella pneumonia ATCC 13883 (K. pneumonia), and Salmonella typhimurium ATCC 14028 (S. typhimurium), Salmonella pneumoniae ATCC 10031(S. pneumoniae), Escherichia coli ATCC 10536 (E. coli), and Salmonella paratyphi ATCC 9150 (S. paratyphi) as Gram-negative bacteria. Additionally, Candida albicans (ATCC 10231), Candida krusei ATCC 6258 (C. krusei), Candida glabrata ATCC 66032 (C. glabrata), andCandida parapsilosis ATCC 22019 (C. parapsilosis) were applied as models of unicellular fungi. The pre-inoculation cultures of the pathogens were prepared on Muller–Hinton broth and cultivated for 24 h at 37 °C. The agar-well test was prepared on Muller–Hinton agar with 100 μL of each pathogen pre-culture (0.5 McFarland conc.) and uniformly distributed on the plate surface. Under aseptic conditions, six wells were created on the agar surface using a sterile corkborer (9 mm). To each well, 100 μL of the prepared compound (10 mg mL^−1) was separately inserted into each plate. All plates were incubated for 24 h at 37 °C; the established inhibition zones (Halo-zones) surrounding the wells indicated positive antimicrobial activity and were stated as the radius of the inhibition zone (mm).
# [32] = system: S. mutans; assay: Agar-well diffusion of synthesized compounds; assay type: cell-based, Streptococcus mutans ATCC 25175; conditions: Streptococcus mutans, 100 μL of 10 mg mL^−1 per well, 24 h, 37 °C
# Source text: as §6
# [33] = system: Wi-38 cells; assay: MTT cytotoxicity assay, normal cells; assay type: cell-based; conditions: WI-38, normal human lung fibroblast cells, 48 h
# Source text: as §4, §5
smiles,measurement,setting,value
O=C(Nc1ccc(Nc2c3ccccc3nc3ccccc23)cc1)c1cc2ccccc2oc1=O [Compound C3],Biofilm reduction,[1],22.35 ± 2.58^h %
same,Biofilm reduction,[2],20.56 ± 2.65^h %
same,Biofilm reduction,[3],31.25 ± 2.98^h %
same,Biofilm reduction,[4],27.13 ± 3.96^h %
same,Biofilm reduction,[5],22.55 ± 1.87^h %
same,Biofilm reduction,[6],25.79 ± 1.98^h %
same,Biofilm reduction,[7],29.91 ± 2.44^h %
same,Biofilm reduction,[8],37.29 ± 2.84^h %
same,Biofilm reduction,[9],34.71 ± 1.56^h %
same,Biofilm reduction,[10],35.48 ± 2.58^h %
same,Biofilm reduction,[11],23.36 ± 2.96^h %
same,Biofilm reduction,[12],20.93 ± 3.64^h %
same,Antimicrobial effect,[13],only has an impact on a few examined yeast infections
same,Inhibition zone diameters,[14],0 mm
same,Inhibition zone diameters,[15],0 mm
same,Inhibition zone diameters,[16],0 mm
same,Inhibition zone diameters,[17],9.29 ± 1.25^fg mm
same,Inhibition zone diameters,[18],0 mm
same,Inhibition zone diameters,[19],7.25 ± 2.33^fg mm
same,Inhibition zone diameters,[20],0 mm
same,Inhibition zone diameters,[21],0 mm
same,Inhibition zone diameters,[22],0 mm
same,Inhibition zone diameters,[23],0 mm
same,Inhibition zone diameters,[24],0 mm
same,Inhibition zone diameters,[25],0 mm
"O=C(Nc1ccc(Nc2ccnc3cc(Cl)ccc23)cc1)c1cc2ccccc2oc1=O [Compound A, N-(4-((7-chloroquinolin-4-yl)amino)phenyl)-2-oxo-2H-chromene-3-carboxamide]",zone of inhibition at 10 mg/mL,[26],~14 mm
same,IC50,"[27]; Homo sapiens, Caco-2, colon carcinoma cells, MTT, 48 h",9.03 ± 1.53 µg/mL
same,SI Caco-2,[27]; IC50 Wi-38 / IC50 Caco-2,15.38 ± 1.33
same,IC50,[28],5.46 ± 0.27 µg/mL
same,IC50,[29],11.5 ± 1.75 µg/mL
same,zone of inhibition at 10 mg/mL,[30],~14 mm
same,Antimicrobial activity,[31],wide-spectrum antibacterial activity
same,zone of inhibition at 10 mg/mL,[32],~14 mm
same,IC50,[33],139 ± 12 µg/mL
